The test concerns HL-60 cells. The test is described as follows: Growth of HL-60 cells (IC50). Particulars: for IC50: value bracketed between tested concentrations. Format: cell-based, human.
[1] abbreviates: Homo sapiens, HL-60, HL-60 cells, read-out: HL-60, IC50.

Where two headings read alike, the source gives them in different places.

By IC50 is commonly meant the concentration that inhibits the measured activity by half.

For `O=C1C=C2C(c3cc(C(F)(F)F)cc(C(F)(F)F)c3)=C[C@@H]3C[C@@]2(O1)[C@H]1CCCCN31` [Compound 6], the IC50 under setting [1] lay within 15000 to 20000 nM.
Take `CC(C)(C)OCC#CC1=C[C@@H]2C[C@@]3(OC(=O)C=C13)[C@H]1CCCCN21` [Compound 45]: the IC50 under setting [1] is 1250 to 2500 nM.
With `COC(OC)[C@H]1CC[C@H]2N1[C@@H]1C=C(I)C3=CC(=O)O[C@@]32C1` [Compound 1], the “100% Death” value (HL-60 cells, concentration giving 100% death) stood at 100% Death <2.5.
On to `CCc1ccc(C#CC2=C[C@@H]3C[C@@]4(OC(=O)C=C24)[C@H]2CCCCN32)cc1` [Compound 49], for which the IC50 under setting [1] is 310 to 625 nM.
The same measure, in the same setting: the figure for `O=C1C=C2C(C#Cc3cccs3)=C[C@@H]3C[C@@]2(O1)[C@H]1CCCCN31` [Compound 52] is 70 to 156 nM.
For the compound `O=C1C=C2C(I)=C[C@@H]3C[C@@]2(O1)[C@H]1CCCCN31` [Compound 13], the half-inhibitory concentration (IC50) (read-out: HL-60, IC50, HL-60 cells) is less than 2500 nM.
On to `O=C1C=C2C(C#CCC3CCCC3)=C[C@@H]3C[C@@]2(O1)[C@H]1CCCCN31` [Compound 24], for which, under setting [1], the IC50 is 1250 to 2500 nM.
Same read-out and setting: the figure for `O=C1C=C2C(C#Cc3ccc(F)cc3)=C[C@@H]3C[C@@]2(O1)[C@H]1CCCCN31` [Compound 30] is 310 to 625 nM; for `CCCCc1ccc(C#CC2=C[C@@H]3C[C@@]4(OC(=O)C=C24)[C@H]2CCCCN32)cc1` [Compound 50] it is 625 to 1250 nM.
The same measure, in the same setting: the same measure for `O=C1C=C2C(c3cc(Br)cc(Br)c3)=C[C@@H]3C[C@@]2(O1)[C@H]1CCCCN31` [Compound 7]: 15000 to 20000 nM.
In the case of `[N-]=[N+]=Nc1ccc(C#CC2=C[C@@H]3C[C@@]4(OC(=O)C=C24)[C@H]2CCCCN32)cc1` [Compound 54], under setting [1], the IC50 worked out at 310 nM.
Same read-out and setting: the figure for `O=C1C=C2C(C#Cc3ccc(-c4ccccc4)cc3)=C[C@@H]3C[C@@]2(O1)[C@H]1CCCCN31` [Compound 51] is less than 70 nM.
Same read-out and setting: the same measure for `Nc1ccc(C#CC2=C[C@@H]3C[C@@]4(OC(=O)C=C24)[C@H]2CCCCN32)cc1` [Compound 63]: 156 nM; for `O=C1C=C2C(C#CCOc3ccccc3)=C[C@@H]3C[C@@]2(O1)[C@H]1CCCCN31` [Compound 33]: 625 to 1250 nM.
Still for that read-out and setting: the figure for `C[N+]12CCCC[C@@H]1[C@]13C[C@H]2C=C(I)C1=CC(=O)O3` (stereo partly shown) [Compound 9] is 5000 to 7500 nM.
Consider `CCCCC#CC1=C[C@@H]2C[C@@]3(OC(=O)C=C13)[C@H]1CCCCN21` [Compound 20], for which the IC50 under setting [1] was 2500 nM.
With `CC(C)[Si](OCC#CC1=C[C@@H]2C[C@@]3(OC(=O)C=C13)[C@H]1CCCCN21)(C(C)C)C(C)C` [Compound 27], the IC50 (Homo sapiens, HL-60, read-out: HL-60, IC50, HL-60 cells) was 625 to 1250 nM.
Consider `O=C1C=C2C(C#CC3CCCC3)=C[C@@H]3C[C@@]2(O1)[C@H]1CCCCN31` [Compound 19], for which the 50% inhibitory concentration (IC50) under setting [1] lay in the range of 310 to 625 nM.
In the case of `CCCCC1=C[C@@H]2C[C@@]3(OC(=O)C=C13)[C@H]1CCCCN21` [Compound 4], the IC50 under setting [1] lay in the range of 3000 to 4000 nM.
As to `O=C1C=C2C(C#CC3CC3)=C[C@@H]3C[C@@]2(O1)[C@H]1CCCCN31` [Compound 25], under setting [1], the IC50 lay within 1250 to 2500 nM.
On to `Cc1ccccc1C#CC1=C[C@@H]2C[C@@]3(OC(=O)C=C13)[C@H]1CCCCN21` [Compound 38], for which the IC50 under setting [1] lay in the range of 1250 to 2500 nM.
Still for that read-out and setting: the same measure for `CC(C)(C)C#CC1=C[C@@H]2C[C@@]3(OC(=O)C=C13)[C@H]1CCCCN21` [Compound 23]: 1250 to 2500 nM; for `CC(C)(C)c1ccc(C#CC2=C[C@@H]3C[C@@]4(OC(=O)C=C24)[C@H]2CCCCN32)cc1` [Compound 32]: 1250 nM; for `CC(C)(C)c1ccc(C2=C[C@@H]3C[C@@]4(OC(=O)C=C24)[C@H]2CCCCN32)cc1` [Compound 5]: 20000 to 30000 nM.
Same read-out and setting: the same measure for `CC(C)CC#CC1=C[C@@H]2C[C@@]3(OC(=O)C=C13)[C@H]1CCCCN21` [Compound 16]: 1250 to 2500 nM; for `O=C1C=C2C(C#Cc3cc(F)cc(F)c3)=C[C@@H]3C[C@@]2(O1)[C@H]1CCCCN31` [Compound 37]: 5000 to 10000 nM; for `O=C1C=C2C(C#CCOCc3ccccc3)=C[C@@H]3C[C@@]2(O1)[C@H]1CCCCN31` [Compound 34]: 1250 to 2500 nM.
On the same count and under the same terms, the figure for `CCOC(C#CC1=C[C@@H]2C[C@@]3(OC(=O)C=C13)[C@H]1CCCCN21)OCC` [Compound 44] is 2500 to 5000 nM.

(Values after patent US10130616B2, “Securinine and norsecurinine analogue compounds for the treatment of myeloid disorders” (Case Western Reserve University, priority 2013, dated 2018).)
